Seven molecules from article PMC11121495, “Blap-6, a Novel Antifungal Peptide from the Chinese Medicinal Beetle Blaps rhynchopetera against Cryptococcus neoformans” (International Journal of Molecular Sciences, 2024) can be followed below.

≈ marks a conversion by molar mass, not a printed value. Where two headings read alike, the source gives them in different places. Where no end group is shown, it is not given here.

One assay deals with C. albicans. The assay can be described thus: microbe, parasite or virus in culture. The format is cell-based, Candida albicans (ATCC 10231). An excerpt: (§1) These standard strains of Escherichia coli (E. coli, ATCC 8739), Staphylococcus aureus (S. aureus, ATCC 6538), Pseudomonas aeruginosa (P. aeruginosa, ATCC 27853), Acinetobacter baumannii (A. baumannii, ATCC 1968), Candida albicans (ATCC 10231), and the clinical strain of Methicillin-resistant Staphylococcus aureus (MRSA, MRSA-Z) were obtained from Kunming Medical University. The standard strain of C. neoformans (ATCC 32045) was purchased from Shanghai Yingxin Laboratory Co., Ltd. (CAS NO. YXJ50058). Different strains of E. coli, S. aureus, MRSA, P. aeruginosa, and A. baumannii were cultured with shaking at 37 °C in Luria–Bertani (LB) medium. C. neoformans was cultured at 35 °C in Sabouraud Dextrose Agar (SDA) medium according to the manufacturer’s instructions.
(§2) According to Clinical and Laboratory Standards Institute (CLSI) protocols, the minimum inhibitory concentration (MIC) is the minimum drug concentration at which antibiotics inhibit the growth and reproduction of strains. The different strains were grown in their corresponding media at 35 °C or 37 °C until they entered the exponential growth phase. Fluconazole and amphotericin B were used as positive controls, and sterile 0.9% NaCl was used as a negative control. The peptides were diluted to various concentrations in sterile saline. According to 1 OD = 1 × 10^9 CFU/mL, the above bacterial solution was diluted to 2 × 10^5 CFU/mL with the corresponding medium. In advance, 100 μL of normal saline was added to a sterile 96-well plate, and 200 μL of the sample to be tested was added to the first well. The sample to be tested was subjected to double gradient dilution, and then 100 μL of bacterial solution with a concentration of 2 × 10^5 was added to each well. It was cultured at 35 °C or 37 °C for different times. The light absorption value of the bacterial solution at 600 nm was detected by a microplate reader (Epoch Etock, Biotek, Winooski, VT, USA), and the average concentration of the samples in the pores and adjacent pores that could not detect microbial growth was used as the MIC value.

For a further assay, the system named is C. neoformans. The assay can be described thus: microbe, parasite or virus in culture. The assay is classed as cell-based, Cryptococcus neoformans (ATCC 32045).
From the text: as §1, §2

In the next assay the test system is E. coli. The assay can be described thus: microbe, parasite or virus in culture. The assay is classed as cell-based, Escherichia coli (ATCC 8739).
From the text: as §1, §2

A further assay concerns S. aureus. The assay can be described thus: microbe, parasite or virus in culture. The format is cell-based, Staphylococcus aureus (ATCC 6538).
From the text: as §1, §2

Another assay relates to A. baumannii. The assay is described as follows: microbe, parasite or virus in culture. The format is cell-based, Acinetobacter baumannii (ATCC 1968).
From the text: as §1, §2

The next assay has as its system P. aeruginosa. The assay is described as follows: microbe, parasite or virus in culture. The format is cell-based, Pseudomonas aeruginosa (ATCC 27853).
From the text: as §1, §2

The next assay concerns MRSA. The assay is described as follows: microbe, parasite or virus in culture. The format is cell-based.
From the text: as §1, §2

The test system of the next assay is C. neoformans ATCC 32045. The assay is described as follows: Fungal-killing kinetics. The format is cell-based, Cryptococcus neoformans. As to conditions: positive control; concentration not stated in the sentence (1×, 5×, 10 × MIC tested). How it is done: The single colony of C. neoformans ATCC 32045 was selected and cultured at 180 rpm and 37 °C, washed three times with normal saline, and then resuspended, and the fungal solution was diluted to 1 × 10^6 CFU/mL with SDB medium. The positive control was fluconazole, and the negative control was normal saline. […] The fungal liquid after adding the sample was quickly put into the 37 °C constant temperature incubator, and the shaking culture was carried out at 180 rpm. […] The plate was placed in a constant temperature incubator for inverted culture for 72 h at 37 °C, and then the single colony on the plate was counted.

[1] abbreviates: Candida albicans, ATCC10231, ATCC 10231, double gradient dilution, 2 × 10^5 CFU/mL, OD 600 nm, mean of three independent experiments.
Setting [2] is: Cryptococcus neoformans, ATCC32045, ATCC 32045, double gradient dilution, 2 × 10^5 CFU/mL, 35 °C, OD 600 nm, mean of three independent experiments.

Consider KRALSLPKMREDRLLYRGRA [blap-7], for which the MIC is on record as 156.30 µM in the assay on C. albicans and 312.50 µM against C. neoformans.
As for `CC1(C)S[C@@H]2[C@H](NC(=O)[C@H](N)c3ccccc3)C(=O)N2[C@H]1C(=O)O` [Ampicillin, reference compound], the MIC in the assay with E. coli (Escherichia coli, ATCC8739, ATCC 8739, double gradient dilution, 2 × 10^5 CFU/mL, LB, 37 °C, OD 600 nm, mean of three independent experiments) was 31.6 µM (≈ 11 µg/mL); against S. aureus (Staphylococcus aureus, ATCC6538, ATCC 6538, double gradient dilution, 2 × 10^5 CFU/mL, LB, 37 °C, OD 600 nm, mean of three independent experiments), 63.1 µM (≈ 22.1 µg/mL); in the assay on A. baumannii (Acinetobacter baumannii, ATCC1968, ATCC 1968, double gradient dilution, 2 × 10^5 CFU/mL, LB, 37 °C, OD 600 nm, mean of three independent experiments) it was 31.6 µM (≈ 11 µg/mL); against P. aeruginosa (Pseudomonas aeruginosa, ATCC27853, ATCC 27853, double gradient dilution, 2 × 10^5 CFU/mL, LB, 37 °C, OD 600 nm, mean of three independent experiments) it was 31.6 µM (≈ 11 µg/mL); in the assay with MRSA (Staphylococcus aureus, clinical strain MRSA-Z, double gradient dilution, 2 × 10^5 CFU/mL, LB, 37 °C, OD 600 nm, mean of three independent experiments), 126 µM (≈ 44.1 µg/mL).
As to `C[C@@H]1[C@H](O)[C@@H](C)/C=C/C=C/C=C/C=C/C=C/C=C/C=C/[C@H](O[C@@H]2O[C@H](C)[C@@H](O)[C@H](N)[C@@H]2O)C[C@@H]2O[C@](O)(C[C@@H](O)C[C@@H](O)[C@H](O)CC[C@@H](O)C[C@@H](O)CC(=O)O[C@H]1C)C[C@H](O)[C@H]2C(=O)O` [Amphotericin B, reference compound], the MIC in the assay on C. albicans (setting [1]) and against C. neoformans (setting [2]) was 0.05 µM (≈ 0.0462 µg/mL) each time.
For the molecule `OC(Cn1cncn1)(Cn1cncn1)c1ccc(F)cc1F` [Fluconazole, reference compound], the MIC against C. albicans (setting [1]) was found to be 0.61 µM (≈ 0.187 µg/mL); against C. neoformans (setting [2]) it was 6.36 µM (≈ 1.95 µg/mL). For the same molecule, the “time required for fungicidal rate to reach more than 90%” value in the assay on C. neoformans ATCC 32045 was 360 min.
For the molecule RWKERKKWQKRWKRKKG [blap-8], the MIC against E. coli came out at 312.50 µM; against S. aureus, 156.3 µM; against P. aeruginosa, 7.81 µM; with MRSA, 156.30 µM; against C. albicans, 19.53 µM; in the assay on C. neoformans, 19.53 µM.
FIKKMLGNFSNYVRRPGKR [blap-9]: the MIC against E. coli worked out at 81.10 µM; in the assay with S. aureus it was 81.10 µM; in the assay with A. baumannii, 81.10 µM; in the assay on P. aeruginosa it was 81.10 µM; against MRSA, 81.10 µM; in the assay with C. albicans it was 40.55 µM. The molecule also showed an MIC against C. neoformans of 81.10 µM.
Take RWNTSRWLRL [blap-10]: the MIC in the assay on P. aeruginosa came out at 312.50 µM; in the assay on MRSA, 19.54 µM; against C. albicans, 156.30 µM; with C. neoformans, 312.5 µM.
